According to the NIST ThermoML archive (doi:10.1021/je060271a):

Details: 283.16 K, Liquid, Vibrating tube method

CCCC(=O)OCC(COC(=O)CCC)(COC(=O)CCC)COC(=O)CCC [pentaerythritol tetrabutyrate]
Details | mass density [kg/m3]
19617 kPa | 1070.2
19631 kPa | 1070.3
19642 kPa | 1070.3
19654 kPa | 1070.3
19669 kPa | 1070.3
19681 kPa | 1070.2
19694 kPa | 1070.3
19706 kPa | 1070.4
19717 kPa | 1070.3
19732 kPa | 1070.3
19743 kPa | 1070.3
19757 kPa | 1070.3
19769 kPa | 1070.3
19781 kPa | 1070.4
19796 kPa | 1070.4
19807 kPa | 1070.3
19819 kPa | 1070.4
19834 kPa | 1070.4
19846 kPa | 1070.3
19858 kPa | 1070.5
19870 kPa | 1070.5
19885 kPa | 1070.4
19897 kPa | 1070.4
19909 kPa | 1070.4
19921 kPa | 1070.3
19936 kPa | 1070.4
19947 kPa | 1070.4
19962 kPa | 1070.5
19975 kPa | 1070.6
19986 kPa | 1070.5
20001 kPa | 1070.5
20014 kPa | 1070.5
20026 kPa | 1070.3
20039 kPa | 1070.6
20053 kPa | 1070.5
20065 kPa | 1070.5
20077 kPa | 1070.5
20092 kPa | 1070.5
20104 kPa | 1070.5
20117 kPa | 1070.6
20130 kPa | 1070.5
20145 kPa | 1070.6
20157 kPa | 1070.7
20170 kPa | 1070.5
20185 kPa | 1070.6
20197 kPa | 1070.6
20210 kPa | 1070.6
20225 kPa | 1070.6
20237 kPa | 1070.6
20250 kPa | 1070.6
20264 kPa | 1070.7
20277 kPa | 1070.6
20290 kPa | 1070.8
20305 kPa | 1070.6
20317 kPa | 1070.6
20330 kPa | 1070.7
20468 kPa | 1070.7
20480 kPa | 1070.8
20493 kPa | 1070.6
20506 kPa | 1070.8
20521 kPa | 1070.7
20534 kPa | 1070.8
20548 kPa | 1070.8
20563 kPa | 1070.8
20576 kPa | 1070.8
20592 kPa | 1070.8
20605 kPa | 1070.8
20618 kPa | 1070.8
20773 kPa | 1070.9
20787 kPa | 1070.9
20800 kPa | 1070.9
20816 kPa | 1070.9
20829 kPa | 1071
20845 kPa | 1071
20858 kPa | 1070.8
20872 kPa | 1071
20886 kPa | 1071
20900 kPa | 1071
20914 kPa | 1070.9
20930 kPa | 1071
21000 kPa | 1071
21016 kPa | 1071
21030 kPa | 1071
21044 kPa | 1071
21060 kPa | 1071
21076 kPa | 1071
21090 kPa | 1071.1
21104 kPa | 1071.1
21118 kPa | 1071.1
21134 kPa | 1071
21148 kPa | 1071.1
21162 kPa | 1071
21178 kPa | 1071.1
21192 kPa | 1071
21209 kPa | 1071
21223 kPa | 1071.1
21237 kPa | 1071.1
21251 kPa | 1071.1
21267 kPa | 1071.1
21282 kPa | 1071.2
21295 kPa | 1071.3
21312 kPa | 1071.2
21326 kPa | 1071.2
21340 kPa | 1071.1
21400 kPa | 1071.2
21417 kPa | 1071.2
21431 kPa | 1071.2
21445 kPa | 1071.3
21463 kPa | 1071.3
21477 kPa | 1071.2
21491 kPa | 1071.2
21508 kPa | 1071.2
21523 kPa | 1071.4
21537 kPa | 1071.2
21554 kPa | 1071.4
21568 kPa | 1071.3
21600 kPa | 1071.4
21723 kPa | 1071.4
21785 kPa | 1071.4
21800 kPa | 1071.4
21818 kPa | 1071.5
22023 kPa | 1071.5
22039 kPa | 1071.6
22057 kPa | 1071.6
22072 kPa | 1071.6
22087 kPa | 1071.6
22102 kPa | 1071.6
22121 kPa | 1071.5
22136 kPa | 1071.6
22154 kPa | 1071.6
22169 kPa | 1071.6
22184 kPa | 1071.6
22200 kPa | 1071.7
22219 kPa | 1071.6
22234 kPa | 1071.6
22250 kPa | 1071.7
22266 kPa | 1071.6
22284 kPa | 1071.6
22300 kPa | 1071.7
22316 kPa | 1071.7
22331 kPa | 1071.7
22790 kPa | 1071.9
22826 kPa | 1071.9
22842 kPa | 1072
22861 kPa | 1072.1
22877 kPa | 1072
